Results: article PMC10870435, “A novel complement C3 inhibitor CP40-KK protects against experimental pulmonary arterial hypertension via an inflammasome NLRP3 associated pathway” (Journal of Translational Medicine, 2024)
Bridge positions count the residues as written; N and C are the ends. Square brackets hold non-standard residues; d marks the D form. Peptide text beside a SMILES is read from it. Trp(1-Me) = Cn1cc(C[C@H](N)C(=O)O)c2ccccc21; NMeI = CC[C@H](C)[C@H](NC)C(=O)O; Sar = CNCC(=O)O

Experiments:
rat C3 = assay: ELISA, direct binding of plasma C3 to coated peptide; settings: peptide coated on ELISA plate, rat plasma dilutions, anti-C3 antibody, OD 450 nm
Description: CP40-KK and its control peptide were dissolved in coating buffer at different concentration and then added to wells of ELISA plate as designed. The coated plate was incubated at 4 °C overnight. Then the plate was incubated with plasma with the indicated dilution at 37 °C for 2 h. Next, the plate was incubated with the C3 antibody (1:2000, MP biomedicals, Irvine, CA, USA) at 37 °C for 2 h. Then the plate was washed for 3 times and incubated with corresponding HRP conjugated secondary antibodies (1:2000, Abcam, Cambridge, UK) at 37° for 1 h. Finally, TMB substrate was added to each well for indicated time at 37 °C and then the stop solution was added to stop the TMB reaction. OD values were measured at 450 nm using a microplate reader (Bio-tek, Vermont, USA). The coating buffer, wash buffer, TMB substrate, and stop solution were all bought from Boster Biological Technology (Wuhan, China).
CP40-KK and its control peptide were dissolved in coating buffer at different concentrations and then added to wells of ELISA plate as designed. The coated plate was incubated at 4°C overnight. After removing the coating buffer from the wells, the plate was washed using wash buffer 3 times. Then the plate was incubated with plasma with the indicated dilution at 37°C for 2h. […] OD values were measured at 450nm using a microplate reader (Bio-tek, Vermont, USA). […]

Tail bleeding time = assay type: in vivo, rat; settings: rats, after 2 weeks of treatment
[1] = tested on: pulmonary vascular remodeling markers (α-SMA, PCNA); assay: Lung α-SMA immunohistochemistry and PCNA western blot in PAH rats; assay type: in vivo, rat; settings: MCT + CP40-KK vs MCT group
Description: In the current study, two animal experiments were conducted successively. 30 rats were randomly divided into two groups (control group and MCT group, n = 15 per group) in the first experiment. MCT group rats received a single intraperitoneally injection of MCT (40 mg/kg) on day 1 to induce PAH while control group rats received an equivoluminal saline injection intraperitoneally. For the second animal experiment, the rats were assigned into four groups (control group, MCT group, CP40-KK group, and MCT + CP40-KK group, n = 15 per group). […]
After hemodynamic measurements, the lungs were perfused with cold phosphate-buffered saline (PBS) and fixed in 4% formaldehyde for 24 h. […] Immunolabels were detected with 3, 3-Diaminobenzidine (DAB), after which the nuclei were counterstained with hematoxylin. […] For quantification analysis, the mean integrated optical density (IOD) for immunohistochemistry was determined using Image J software (National Institutes of Health, Bethesda, MD).
Proteins were collected from the fresh frozen-rat lung tissues using RIPA lysis buffer. Protein concentration was quantified using a BCA reagent. […] To compare and quantify levels of proteins, the density of each band was measured using Image J software. Equal loading for total cell or tissue lysates was determined by β-Actin western blot.

direct binding of rat C3 and CP40-KK (OD450) (rat C3): specific binding
tail bleeding time (Tail bleeding time): significantly prolong
Structure (SMILES): CC[C@H](C)[C@H](NC(=O)[C@H](N)Cc1ccc(O)cc1)C(=O)N[C@H]1CSSC[C@@H](C(=O)N(C)[C@H](C(=O)N[C@@H](CCCCN)C(=O)N[C@@H](CCCCN)C(N)=O)[C@@H](C)CC)NC(=O)[C@H](CCCNC(=N)N)NC(=O)[C@H](Cc2c[nH]cn2)NC(=O)CN(C)C(=O)[C@H](Cc2c[nH]c3ccccc23)NC(=O)[C@H](CC(=O)O)NC(=O)[C@H](CCC(N)=O)NC(=O)[C@H](Cc2cn(C)c3ccccc23)NC(=O)[C@H](C(C)C)NC1=O [CP40-KK] (H-[dY]ICV[Trp(1-Me)]QDW[Sar]HRC[NMeI]KK-NH2; disulfide 3-12 (inferred))
expression of α-SMA in walls of small pulmonary arteries ([1]; immunohistochemistry): reduced significantly
PCNA expression in lung homogenates ([1]; western blot, n = 6 per group): decreased
